From ChEMBL document CHEMBL1201862, “PubChem BioAssay data set” (2004)
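How tested: cells in 96-well plates exposed to compound for 48 hours at five concentrations. At the GI50, growth is halved.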 Activity calls are given as the source filed them. No stated cut-off is given here; in the data, active = GI50 up to about 1.1 µM and inactive = higher.

What was measured:
Assay in all cases: NCI tumour cell line growth inhibition, 48 h
CAKI-1 = test system: CAKI-1
RPMI-8226 = test system: RPMI-8226
786-0 = test system: 786-0
MOLT-4 = test system: MOLT-4
NCI-H460 = test system: NCI-H460
HT-29 = test system: HT-29
OVCAR-8 = test system: OVCAR-8
UO-31 = test system: UO-31
NCI-H522 = test system: NCI-H522
OVCAR-4 = test system: OVCAR-4
CCRF-CEM = test system: CCRF-CEM
RXF 393 = test system: RXF 393
U-251 = test system: U-251
OVCAR-3 = test system: OVCAR-3
A498 = test system: A498
SK-OV-3 = test system: SK-OV-3
OVCAR-5 = test system: OVCAR-5
A549 = test system: A549
T47D = test system: T47D
DU-145 = test system: DU-145

Measured: GI50

CCC(=O)C(C(=O)CC)c1c(OC(=O)c2ccccc2)ccc(O)c1C(=O)OC
inactive: CAKI-1 > 100 µM | RPMI-8226 > 100 µM | 786-0 > 100 µM | MOLT-4 72.3 µM | NCI-H460 > 100 µM | HT-29 > 100 µM | OVCAR-8 > 100 µM | UO-31 > 100 µM | NCI-H522 > 100 µM | OVCAR-4 > 100 µM | CCRF-CEM > 100 µM | RXF 393 > 100 µM | U-251 > 100 µM | OVCAR-3 > 100 µM | A498 > 100 µM | SK-OV-3 > 100 µM | OVCAR-5 > 100 µM | A549 > 100 µM

OCc1c2c(cc3c1CC1(C3)Cc3cc4c(c(CO)c3C1)CCC4)CCC2
inactive: RPMI-8226 21.1 µM | 786-0 14.2 µM | MOLT-4 9.95 µM | HT-29 17.1 µM | OVCAR-8 18.6 µM | UO-31 1.67 µM | NCI-H522 13.3 µM | OVCAR-4 10.1 µM | CCRF-CEM 8 µM | RXF 393 16.6 µM | T47D 12.7 µM | U-251 15.8 µM | OVCAR-3 14.4 µM | A498 16.4 µM | SK-OV-3 17.5 µM | OVCAR-5 19.8 µM | A549 14.4 µM

COc1c(C)c(C/C=C(\C)CCCC(C)CCCC(C)CCCC(C)C)c(OC)c2ccccc12 (stereo not drawn)
inactive: CAKI-1 > 100 µM | RPMI-8226 > 100 µM | 786-0 > 100 µM | DU-145 > 100 µM | MOLT-4 > 100 µM | NCI-H460 > 100 µM | HT-29 > 100 µM | OVCAR-8 > 100 µM | UO-31 > 100 µM | NCI-H522 > 100 µM | OVCAR-4 > 100 µM | CCRF-CEM > 100 µM | RXF 393 > 100 µM | U-251 > 100 µM | OVCAR-3 > 100 µM | SK-OV-3 > 100 µM | OVCAR-5 > 100 µM | A549 > 100 µM

Nc1ccc2c(SCCSc3c4ccccc4nc4cc(N)ccc34)c3ccccc3nc2c1
inactive: CAKI-1 > 100 µM | RPMI-8226 > 100 µM | 786-0 > 100 µM | DU-145 > 100 µM | MOLT-4 15.7 µM | NCI-H460 > 100 µM | HT-29 > 100 µM | OVCAR-8 > 100 µM | UO-31 > 100 µM | NCI-H522 > 100 µM | OVCAR-4 > 100 µM | CCRF-CEM 38.5 µM | T47D > 100 µM | U-251 49.3 µM | OVCAR-3 > 100 µM | SK-OV-3 > 100 µM | OVCAR-5 > 100 µM | A549 > 100 µM

c1ccc(/C(=N/Nc2cnccn2)c2ncccn2)cc1
inactive: CAKI-1 50.9 µM | RPMI-8226 > 100 µM | 786-0 81.3 µM | DU-145 90.2 µM | MOLT-4 28.6 µM | NCI-H460 > 100 µM | HT-29 27.4 µM | OVCAR-8 46 µM | UO-31 29 µM | NCI-H522 14.9 µM | OVCAR-4 67.9 µM | CCRF-CEM 28 µM | RXF 393 > 100 µM | U-251 > 100 µM | OVCAR-3 30.8 µM | SK-OV-3 57.7 µM | OVCAR-5 > 100 µM | A549 > 100 µM

CC(=O)NNC1=NN(C(C)=O)C2(S1)C(=O)Nc1ccccc12 (stereo not drawn)
inactive: CAKI-1 > 100 µM | RPMI-8226 > 100 µM | 786-0 > 100 µM | DU-145 > 100 µM | MOLT-4 > 100 µM | NCI-H460 > 100 µM | HT-29 > 100 µM | OVCAR-8 > 100 µM | UO-31 > 100 µM | NCI-H522 > 100 µM | OVCAR-4 > 100 µM | CCRF-CEM > 100 µM | T47D > 100 µM | U-251 > 100 µM | OVCAR-3 > 100 µM | SK-OV-3 > 100 µM | OVCAR-5 > 100 µM

CCC1C(c2cc(OC)c(OC)c(OC)c2)c2cc3c(cc2OC1N1CCOCC1)OCO3 (stereo not drawn)
inactive: 786-0 11.6 µM | DU-145 5.33 µM | MOLT-4 1.88 µM | NCI-H460 3.4 µM | HT-29 2.73 µM | OVCAR-8 3.93 µM | UO-31 3.88 µM | NCI-H522 4.95 µM | OVCAR-4 2.12 µM | T47D 10.5 µM | OVCAR-3 4.31 µM | SK-OV-3 4.88 µM | OVCAR-5 2.29 µM | A549 4.36 µM

OCCNCO
inactive: CAKI-1 > 100 µM | RPMI-8226 > 100 µM | 786-0 > 100 µM | MOLT-4 > 100 µM | NCI-H460 > 100 µM | HT-29 > 100 µM | OVCAR-8 > 100 µM | UO-31 > 100 µM | NCI-H522 > 100 µM | OVCAR-4 > 100 µM | CCRF-CEM > 100 µM | RXF 393 > 100 µM | U-251 > 100 µM | OVCAR-3 > 100 µM | A498 > 100 µM | SK-OV-3 > 100 µM | OVCAR-5 > 100 µM | A549 > 100 µM

COC(=O)c1c(O)ccc2c1c1c(n2Cc2ccc(OC)cc2)C(=O)c2ccccc2C1
inactive: CAKI-1 20.6 µM | RPMI-8226 8.22 µM | 786-0 53.2 µM | DU-145 > 100 µM | MOLT-4 40.8 µM | NCI-H460 29.3 µM | HT-29 21.7 µM | OVCAR-8 > 100 µM | UO-31 41.6 µM | OVCAR-4 30.8 µM | CCRF-CEM 21.9 µM | RXF 393 20.3 µM | U-251 47.3 µM | OVCAR-3 63.2 µM | A498 > 100 µM | SK-OV-3 31 µM | A549 45.9 µM

NNc1nnc(CCCCCCCCc2nnc(NN)n2N)n1N
inactive: CAKI-1 > 100 µM | 786-0 33.1 µM | DU-145 > 100 µM | MOLT-4 33.2 µM | NCI-H460 > 100 µM | HT-29 > 100 µM | OVCAR-8 17.1 µM | UO-31 > 100 µM | NCI-H522 38.7 µM | OVCAR-4 > 100 µM | CCRF-CEM > 100 µM | RXF 393 > 100 µM | U-251 16.9 µM | A498 > 100 µM | SK-OV-3 > 100 µM | OVCAR-5 > 100 µM | A549 > 100 µM

NC(=O)CC[C@H]1C(=O)N=C(N)N1C(=O)OCc1ccccc1
inactive: CAKI-1 > 100 µM | RPMI-8226 > 100 µM | 786-0 > 100 µM | DU-145 > 100 µM | MOLT-4 > 100 µM | NCI-H460 > 100 µM | HT-29 > 100 µM | OVCAR-8 > 100 µM | UO-31 > 100 µM | NCI-H522 > 100 µM | OVCAR-4 > 100 µM | RXF 393 > 100 µM | U-251 > 100 µM | OVCAR-3 > 100 µM | A498 > 100 µM | OVCAR-5 > 100 µM
